Results on four compounds are retold here after article PMC6560442, “Biochemical Properties of Polyphenol Oxidases from Ready-to-Eat Lentil (Lens culinaris Medik.) Sprouts and Factors Affecting Their Activities: A Search for Potent Tools Limiting Enzymatic Browning” (Foods, 2019).

SMILES strings stand for the structures.

For one experiment, the system named is T1, PPO I.
T1 construct: first isoenzyme
Description: quinone formation, absorbance at […] nm, Lineweaver-Burk. Format: biochemical, Lens culinaris. Particulars: TRIS-HCl 50 mM pH 6.5 (standard assay); 1-30 mM substrate; partially purified enzyme.

The subject of the next experiment is T2, PPO II.
T2 construct: second isoenzyme
The description is as above. In kind it is biochemical, Lens culinaris. As to conditions: TRIS-HCl 50 mM pH 6.5 (standard assay); 1-30 mM substrate; partially purified enzyme.

The Km is the concentration of substrate that gives half-maximal velocity. For the compound `O=C(O)/C=C/c1ccc(O)c(O)c1` [Caffeic acid], the Michaelis constant (Km) in the experiment on PPO I is 3810 ± 170 µM.

Regarding `Oc1ccccc1O` [Catechol], the Km was 940 ± 40 µM in the experiment with PPO II and 1760 ± 80 µM in the experiment with PPO I.

Regarding `Cc1ccc(O)c(O)c1` [4-methylcatechol], the Michaelis constant (Km) with PPO II worked out at 3400 ± 150 µM; with PPO I, 3000 ± 140 µM.

Regarding `O=C(O)c1cc(O)c(O)c(O)c1` [Gallic acid], the Michaelis constant (Km) in the experiment on PPO II amounted to 5000 ± 230 µM; in the experiment on PPO I, 2250 ± 100 µM.
